Source: patent publication US20230172204A1 (BASF SE, priority 2020, published 2023)

Legend:
[1] = tested on: Phakopsora pachyrhizi (F129L); assay: Protective control of soybean rust on soybeans (PHAKPA P2); assay type: in vivo; conditions: soybean rust F129L; for % PHAKPA (F129L) Disease level P2 at 4 ppm: protective P2, 4 ppm; for % PHAKPA (F129L) Disease level P2 at 16 ppm: protective P2, 16 ppm
[2] = tested on: Phakopsora pachyrhizi (F129L); assay: Protective control of soybean rust on soybeans (PHAKPA P6); assay type: in vivo; conditions: soybean rust F129L; for % PHAKPA (F129L) Disease level P6 at 4 ppm: protective P6, 4 ppm; for % PHAKPA (F129L) Disease level P6 at 16 ppm: protective P6, 16 ppm

| Compound | % PHAKPA (F129L) Disease level P2 at 4 ppm [1] | % PHAKPA (F129L) Disease level P2 at 16 ppm [1] | % PHAKPA (F129L) Disease level P6 at 4 ppm [2] | % PHAKPA (F129L) Disease level P6 at 16 ppm [2] |
| --- | --- | --- | --- | --- |
| CO/N=C(/C(=O)OC)c1cccc(C)c1CO/N=C(\C)c1ccc(OC(F)(F)F)cc1 [compound 133] | 1% | 0% | 2% | 0% |
| CO/N=C(/C(=O)OC)c1cccc(C)c1CO/N=C(\C)c1cccc(Br)c1F [compound 134] | 37% | 10% | 22% | 7% |
| CO/N=C(/C(=O)OC)c1cccc(C)c1CO/N=C(\C)c1cc(Br)cc(Br)c1 [compound 135] | 15% | 1% | 16% | 2% |
| CNC(=O)/C(=N/OC)c1cccc(C)c1CO/N=C(\C)c1ccc(OC(F)(F)F)cc1 [compound 136] | 1% | 0% | 3% | 2% |
| CO/N=C(/C(=O)OC)c1cccc(C)c1CO/N=C(\C)c1ccc(C)c(C)c1 [compound 137] | 19% | 2% | 50% | 5% |
| CO/N=C(/C(=O)OC)c1cccc(C)c1CO/N=C(\C)c1cc(Br)ccc1F [compound 138] | 47% | 2% | 35% | 1% |
| CNC(=O)/C(=N/OC)c1cccc(C)c1CO/N=C(\C)c1ccc(C)c(C)c1 [compound 139] | 47% | 2% | 72% | 24% |
| CNC(=O)/C(=N/OC)c1cccc(C)c1CO/N=C(\C)c1cc(Br)ccc1F [compound 140] | 8% | 0% | 13% | 4% |
| CNC(=O)/C(=N/OC)c1cccc(C)c1CO/N=C(\C)c1cccc(Br)c1F [compound 141] | 2% | 0% | 2% | 0% |
| CNC(=O)/C(=N/OC)c1cccc(C)c1CO/N=C(\C)c1cc(Br)cc(Br)c1 [compound 142] | 19% | 5% | 26% | 5% |
| C#Cc1cc(/C(C)=N/OCc2c(C)cccc2/C(=N\OC)C(=O)OC)cc(C(F)(F)F)c1 [compound 143] | 4% | 0% | 15% | 0% |
| CO/N=C(/C(=O)OC)c1cccc(C)c1CO/N=C(\C)c1cc(-c2ccccc2)cc(C(F)(F)F)c1 [compound 144] | 87% | 80% | 92% | 90% |
| CO/N=C(/C(=O)OC)c1cccc(C)c1CO/N=C(\C)c1cc(C2CC2)cc(C(F)(F)F)c1 [compound 145] | 28% | 8% | 37% | 16% |
| CCc1cc(/C(C)=N/OCc2c(C)cccc2/C(=N\OC)C(=O)OC)cc(C(F)(F)F)c1 [compound 146] | 73% | 12% | 77% | 48% |
| C=Cc1cc(/C(C)=N/OCc2c(C)cccc2/C(=N\OC)C(=O)OC)cc(C(F)(F)F)c1 [compound 147] | 73% | 18% | 95% | 18% |
| C#Cc1cc(/C(C)=N/OCc2c(C)cccc2/C(=N\OC)C(=O)NC)cc(C(F)(F)F)c1 [compound 148] | 9% | 2% | 13% | 7% |
| CNC(=O)/C(=N/OC)c1cccc(C)c1CO/N=C(\C)c1cc(-c2ccccc2)cc(C(F)(F)F)c1 [compound 149] | 83% | 45% | 87% | 31% |
| CNC(=O)/C(=N/OC)c1cccc(C)c1CO/N=C(\C)c1cc(C2CC2)cc(C(F)(F)F)c1 [compound 150] | 56% | 8% | 70% | 29% |

| Compound | % PHAKPA (F129L) Disease level P2 at 4 ppm [1] | % PHAKPA (F129L) Disease level P2 at 16 ppm [1] | % PHAKPA (F129L) Disease level P6 at 4 ppm [2] | % PHAKPA (F129L) Disease level P6 at 16 ppm [2] |
| --- | --- | --- | --- | --- |
| CCc1cc(/C(C)=N/OCc2c(C)cccc2/C(=N\OC)C(=O)NC)cc(C(F)(F)F)c1 [compound 151] | 37% | 3% | 53% | 6% |
| C=Cc1cc(/C(C)=N/OCc2c(C)cccc2/C(=N\OC)C(=O)NC)cc(C(F)(F)F)c1 [compound 152] | 24% | 1% | 38% | 7% |
| CO/N=C(/C(=O)OC)c1cccc(C)c1CO/N=C(\C)c1c(F)ccc(C(F)(F)F)c1F [compound 156] | 27% | 0% | 47% | 3% |
| CO/N=C(/C(=O)OC)c1cccc(C)c1CO/N=C(\C)c1cccc(CC2COC2)c1 [compound 160] | 100% | 97% | 87% | 90% |
| CNC(=O)/C(=N/OC)c1cccc(C)c1CO/N=C(\C)c1cccc(CC2COC2)c1 [compound 161] | 100% | 100% | 100% | 90% |
| CNC(=O)/C(=N/OC)c1cccc(C)c1CO/N=C(\C)c1c(F)ccc(C(F)(F)F)c1F [compound 162] | 0% | 0% | 1% | 0% |
| CO/N=C(/C(=O)OC)c1cccc(C)c1CO/N=C(\C)c1ccc(C)c(Cl)c1 [compound 163] | 20% | 1% | 47% | 9% |
| CNC(=O)/C(=N/OC)c1cccc(C)c1CO/N=C(\C)c1ccc(OC)cc1 [compound 164] | 5% | 0% | 27% | 0% |
| CO/N=C(/C(=O)OC)c1cccc(C)c1CO/N=C(\C)c1ccc(C(C)=O)cc1 [compound 166] | 100% | 83% | 90% | 43% |
| CNC(=O)/C(=N/OC)c1cccc(C)c1CO/N=C(\C)c1cc(Cl)cc(Cl)c1F [compound 167] | 2% | 0% | 9% | 0% |
| CNC(=O)/C(=N/OC)c1cccc(C)c1CO/N=C(\C)c1ccc(Br)cc1 [compound 168] | 2% | 0% | 5% | 0% |
| CO/N=C(/C(=O)OC)c1cccc(C)c1CO/N=C(\C)c1c(F)cc(F)cc1F [compound 169] | 77% | 0% | 77% | 0% |
| CNC(=O)/C(=N/OC)c1cccc(C)c1CO/N=C(\C)c1c(F)cc(F)cc1F [compound 170] | 9% | 0% | 4% | 0% |
| CO/N=C(/C(=O)OC)c1cccc(C)c1CO/N=C(\C)c1c(Cl)cccc1Cl [compound 171] | 100% | 100% | 80% | 50% |
| C#Cc1ccc(/C(C)=N/OCc2c(C)cccc2/C(=N\OC)C(=O)OC)cc1 [compound 172] | 35% | 1% | 83% | 12% |
| CNC(=O)/C(=N/OC)c1cccc(C)c1CO/N=C(\C)c1c(Cl)cccc1Cl [compound 173] | 100% | 53% | 97% | 17% |
| CO/N=C(/C(=O)OC)c1cccc(C)c1CO/N=C(\C)c1c(C)cccc1C [compound 174] | 100% | 100% | 80% | 70% |
| CCc1ccccc1/C(C)=N/OCc1c(C)cccc1/C(=N\OC)C(=O)OC [compound 175] | 100% | 97% | 100% | 93% |
